Assay results from patent publication US9682928B2 (NeuroPro Therapeutics, Inc., priority 2009, dated 2017).
Read-outs that look alike come from different tables or passages of the source. Blank lines part the entries; values can stand above or below the compound they belong to.

Columns and labels:
Sprague-Dawley rats = assay: Kainic acid induced seizures in rats; type: in vivo, rat; design: key to Seizures Severity Mean ± SD (grade 0 to IV): seizure grade 0 = no response to IV = status epilepticus; settings: 20 μmoles/kg IP; for Seizures Severity Mean ± SD (grade 0 to IV) / Seizures Mean ± SD (1 = yes, 0 = no): KA 15 mg/kg i.p.; for Seizures Mean ± SD (1 = yes, 0 = no): 2 hours; for change in vivo at 20 µmol/kg: Rattus norvegicus, 2 h, vs DMSO control
Experimental: Formulation of kainic acid was performed by NTS as a stock solution by reconstituting kainic acid with (100%) saline that was stored at 4° C. Vehicle control received saline solution. […] The research investigators were blinded to the treatment groups.
Solutions were prepared fresh daily just prior to use; dosing of all 10 rats with any given compound occurred on a single day after preparing the dosing solution. […] Unused remaining dosing solutions were stored frozen.
Animals were maintained in a temperature- and light-controlled environment in accord with the principles and procedures of the National Institutes of Health Guidelines for Care and Use of Laboratory Animals. Seizures were induced in adult, male Sprague-Dawley rats (260-300 g) by injection of KA (15 mg/kg, i.p.). In addition, animals were injected with test compounds following kainic acid to determine the effects on protection from epilepsy. Animals were monitored behaviorally for seizures for 2 hours after injection.
Seizure activity was initially characterized as either yes (1) or no (0) within a 2 hour period following injection of KA. A seizure severity grade was assigned based on the maximal response achieved on a scale from 0 to IV as follows: 0, no response; I, single limb clonus and scratching; II, multiple limb clonus and staggering gait; […], limb clonus, tonic extension of limbs and falling; IV, continuous grade III seizures for longer than 30 min (status epilepticus).
The results were expressed as the mean±standard deviation (SD). The significance of difference in the epileptic data was analyzed using a one-way analysis of variance (ANOVA) followed by Fisher's post hoc test. Repeated-measures ANOVA were computed on the monitoring data and the significance of the difference among groups were evaluated by Fisher's post hoc test.
All groups were subjected to kainic acid.
The induction of seizures in rats with kainic acid was determined as either yes seizures (1) or no seizures (0).

Na+K+Cl− co-transporter = target: T1, Na+K+Cl− co-transporter (Rattus norvegicus, UniProt E9PTX9); assay: Na+K+Cl− cotransporter assay, 86Rb uptake in A7r5 cells; type: cell-based; settings: 10 minutes at 37° C.; for inhibition at 10 µM: read-out: % Inhibition of Control Values; for remaining activity at 10 µM: read-out: % of Control Value; for % Inhibition of Control Values / % of Control Value: 10 μM
T1 construct: endogenous in cells; host or cells: A7r5 cells
T1 sequence (E9PTX9 1-1203): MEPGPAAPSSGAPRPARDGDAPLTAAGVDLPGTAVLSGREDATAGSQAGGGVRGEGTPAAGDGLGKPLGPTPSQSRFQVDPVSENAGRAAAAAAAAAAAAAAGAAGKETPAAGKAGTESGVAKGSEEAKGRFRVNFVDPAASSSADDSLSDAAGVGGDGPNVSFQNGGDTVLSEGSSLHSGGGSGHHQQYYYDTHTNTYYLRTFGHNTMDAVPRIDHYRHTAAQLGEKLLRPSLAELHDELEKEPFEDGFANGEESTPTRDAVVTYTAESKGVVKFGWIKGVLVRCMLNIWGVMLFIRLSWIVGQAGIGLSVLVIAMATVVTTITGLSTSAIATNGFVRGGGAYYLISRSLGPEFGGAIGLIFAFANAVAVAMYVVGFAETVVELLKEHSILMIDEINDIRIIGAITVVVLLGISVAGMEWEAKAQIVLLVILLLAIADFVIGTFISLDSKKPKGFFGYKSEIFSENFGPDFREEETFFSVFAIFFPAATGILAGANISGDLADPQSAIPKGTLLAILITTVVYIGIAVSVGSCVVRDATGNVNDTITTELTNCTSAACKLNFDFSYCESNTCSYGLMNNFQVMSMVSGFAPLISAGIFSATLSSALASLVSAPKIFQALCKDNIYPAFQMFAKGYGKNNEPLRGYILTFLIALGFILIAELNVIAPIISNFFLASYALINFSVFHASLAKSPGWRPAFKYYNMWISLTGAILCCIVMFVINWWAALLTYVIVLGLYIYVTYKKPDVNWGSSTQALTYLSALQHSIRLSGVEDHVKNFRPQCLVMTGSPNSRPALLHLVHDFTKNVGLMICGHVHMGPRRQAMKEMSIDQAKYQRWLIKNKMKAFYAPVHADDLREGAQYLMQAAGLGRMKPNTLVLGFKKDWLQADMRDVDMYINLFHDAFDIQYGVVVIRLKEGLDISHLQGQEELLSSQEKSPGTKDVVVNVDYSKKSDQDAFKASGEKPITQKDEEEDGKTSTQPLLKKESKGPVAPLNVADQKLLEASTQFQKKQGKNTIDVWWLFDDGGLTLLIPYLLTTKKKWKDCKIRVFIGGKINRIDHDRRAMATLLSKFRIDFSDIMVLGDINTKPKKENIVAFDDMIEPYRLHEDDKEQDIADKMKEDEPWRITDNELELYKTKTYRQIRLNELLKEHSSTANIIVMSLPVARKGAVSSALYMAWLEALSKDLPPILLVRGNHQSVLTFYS
Experimental: Na^+K^+Cl^− co-transporter activity was measured in vitro in A7r5 cells by measuring their uptake of ^86Rb (0.2 μCi) in 10 minutes at 37° C. as detected by scintillation counting. See Chassande, et al. (1988) “The Na^+/K^+/Cl^− Cotransport in C6 glioma cells. Properties and role in volume regulation.” Eur. J. Biochem. 171: 425433.

[1] = read-out: Percent reduction in Seizures
[2] = read-out: Percent reduction in Seizures Severity

SMILES: OC[C@@H](O)[C@@H](O)[C@H](O)[C@H](O)CO [Mannitol, reference compound]
- Seizures Severity Mean ± SD (grade 0 to IV) (Sprague-Dawley rats): 0.5000 ± 0.7071
- Seizures Mean ± SD (1 = yes, 0 = no) (Sprague-Dawley rats): 0.4000 ± 0.5164
- change in vivo at 20 µmol/kg (Sprague-Dawley rats; [1]): -55.5%
- change in vivo at 20 µmol/kg (Sprague-Dawley rats; [2]): -79.2%

SMILES: CCCCNc1cc(C(=O)N(C)C)cc(S(N)(=O)=O)c1Oc1ccccc1 [NTP-2015, N,N-Dimethyl 3-Aminosulfonyl-5-N-butylamino-4-phenoxybenzamide]
- Seizures Severity Mean ± SD (grade 0 to IV) (Sprague-Dawley rats): 1.100 ± 1.197
- Seizures Mean ± SD (1 = yes, 0 = no) (Sprague-Dawley rats): 0.5000 ± 0.5270
- change in vivo at 20 µmol/kg (Sprague-Dawley rats; [1]): -44.4%
- change in vivo at 20 µmol/kg (Sprague-Dawley rats; [2]): -54.2%

SMILES: CCCCNc1cc(C(=O)NCc2ccccc2)cc(S(N)(=O)=O)c1Oc1ccccc1 [NTP-2018, N-Benzyl 3-Aminosulfonyl-5-N-butylamino-4-phenoxybenzamide]
- % Inhibition of Control Values (Na+K+Cl− co-transporter): 13%
- % of Control Value (Na+K+Cl− co-transporter): 87.3%

SMILES: CCCCNc1cc(C(=O)N[C@H](C)c2ccccc2)cc(S(N)(=O)=O)c1Oc1ccccc1 [NTP-2020, (R)-α-Methylbenzyl 3-Aminosulfonyl-5-N-butylamino-4-phenoxybenzamide]
- % Inhibition of Control Values (Na+K+Cl− co-transporter): 7%
- % of Control Value (Na+K+Cl− co-transporter): 93.5%

SMILES: CCCCNc1cc(C(=O)N[C@@H](C)c2ccccc2)cc(S(N)(=O)=O)c1Oc1ccccc1 [NTP-2021, (S)-α-Methylbenzyl 3-Aminosulfonyl-5-N-butylamino-4-phenoxybenzamide]
- % Inhibition of Control Values (Na+K+Cl− co-transporter): 27%
- % of Control Value (Na+K+Cl− co-transporter): 72.6%

SMILES: CCCCNc1cc(C(=O)NN2CCCCC2)cc(S(N)(=O)=O)c1Oc1ccccc1 [NTP-2023, N-Piperidinyl 3-Aminosulfonyl-5-N-butylamino-4-phenoxybenzamide]
- % Inhibition of Control Values (Na+K+Cl− co-transporter): 23%
- % of Control Value (Na+K+Cl− co-transporter): 77.3%

SMILES: CCCCCCCCCCOC(=O)c1cc(NCCCC)c(Oc2ccccc2)c(S(N)(=O)=O)c1 [NTP-2028, n-Decyl Aminosulfonyl-5-N-butylamino-4-phenoxybenzoate]
- % Inhibition of Control Values (Na+K+Cl− co-transporter): 16%
- % of Control Value (Na+K+Cl− co-transporter): 84.4%

SMILES: CCCCNc1cc(C(=O)OCc2ccc(OC)cc2)cc(S(N)(=O)=O)c1Oc1ccccc1 [NTP-2031, 4-Methoxybenzyl Aminosulfonyl-5-N-butylamino-4-phenoxybenzoate]
- % Inhibition of Control Values (Na+K+Cl− co-transporter): 7%
- % of Control Value (Na+K+Cl− co-transporter): 92.6%

SMILES: CCCCNc1cc(C(=O)OCCCCc2ccccc2)cc(S(N)(=O)=O)c1Oc1ccccc1 [NTP-2034, 4-phenylbutyl 3-Aminosulfonyl-5-N-butylamino-4-phenoxybenzoate]
- % Inhibition of Control Values (Na+K+Cl− co-transporter): 21%
- % of Control Value (Na+K+Cl− co-transporter): 78.9%

SMILES: CCCCNc1cc(C(=O)O[C@H](C)c2ccccc2)cc(S(N)(=O)=O)c1Oc1ccccc1 [NTP-2035, (R)-α-Methylbenzyl 3-Aminosulfonyl-5-N-butylamino-4-phenoxybenzoate]
- % Inhibition of Control Values (Na+K+Cl− co-transporter): 26%
- % of Control Value (Na+K+Cl− co-transporter): 74.5%

SMILES: CCCCNc1cc(C(=O)O[C@@H](C)c2ccccc2)cc(S(N)(=O)=O)c1Oc1ccccc1 [NTP-2036, (S)-α-Methylbenzyl 3-Aminosulfonyl-5-N-butylamino-4-phenoxybenzoate]
- % Inhibition of Control Values (Na+K+Cl− co-transporter): 20%
- % of Control Value (Na+K+Cl− co-transporter): 80.1%

Now from value to compound, other results behind:

- inhibition at 10 µM (Na+K+Cl− co-transporter): 30%
- remaining activity at 10 µM (Na+K+Cl− co-transporter): 70.4%
SMILES: CCCCNc1cc(C(=O)N(CC)CC)cc(S(N)(=O)=O)c1Oc1ccccc1 [NTP-2007, N,N-Diethyl 3-Aminosulfonyl-5-butylamino-4-phenoxybenzamide]
- Seizures Severity Mean ± SD (grade 0 to IV) (Sprague-Dawley rats): 1.500 ± 1.354
- Seizures Mean ± SD (1 = yes, 0 = no) (Sprague-Dawley rats): 0.6000 ± 0.5164
- change in vivo at 20 µmol/kg (Sprague-Dawley rats; [1]): -33.3%
- change in vivo at 20 µmol/kg (Sprague-Dawley rats; [2]): -37.5%

- % Inhibition of Control Values (Na+K+Cl− co-transporter): −7%
- % of Control Value (Na+K+Cl− co-transporter): 107.2%
SMILES: CCCCNc1cc(C(=O)NC)cc(S(N)(=O)=O)c1Oc1ccccc1 [NTP-2016, N-Methyl 3-Aminosulfonyl-5-N-butylamino-4-phenoxybenzamide]

- inhibition at 10 µM (Na+K+Cl− co-transporter): 7%
- remaining activity at 10 µM (Na+K+Cl− co-transporter): 92.7%
SMILES: CCCCNc1cc(C(=O)N2CCCC2)cc(S(N)(=O)=O)c1Oc1ccccc1 [NTP-2022, N-Pyrrolidinyl Aminosulfonyl-5-N-butylamino-4-phenoxybenzamide]
- Seizures Severity Mean ± SD (grade 0 to IV) (Sprague-Dawley rats): 1.100 ± 1.101
- Seizures Mean ± SD (1 = yes, 0 = no) (Sprague-Dawley rats): 0.6000 ± 0.5164
- change in vivo at 20 µmol/kg (Sprague-Dawley rats; [1]): -33.3%
- change in vivo at 20 µmol/kg (Sprague-Dawley rats; [2]): -54.2%

- inhibition at 10 µM (Na+K+Cl− co-transporter): -27%
- remaining activity at 10 µM (Na+K+Cl− co-transporter): 127%
SMILES: CCCCNc1cc(C(=O)NCCCN(C)C)cc(S(N)(=O)=O)c1Oc1ccccc1 [NTP-2025]

- % Inhibition of Control Values (Na+K+Cl− co-transporter): 12%
- % of Control Value (Na+K+Cl− co-transporter): 88.4%
SMILES: CCCCNc1cc(C(=O)OCC=C(C)C)cc(S(N)(=O)=O)c1Oc1ccccc1 [NTP-2029, 3-Methylbut-2-enyl Aminosulfonyl-5-N-butylamino-4-phenoxybenzoate]
